The experiment relates to Sprague-Dawley rats. In words: Forced Swim Test in rats. The class given is in vivo, rat. The procedure:
In this assay, mechanisms with purported antidepressant-like activity decrease immobility in a brief inescapable forced swim episode.
The forced-swim test is conducted with both mice (male, NIH-Swiss mice, 20-25 g, Harlan Sprague-Dawley, Indianapolis, Ind.) and rats (male, Sprague-Dawley rats, 250-350 g, Harlan Sprague-Dawley, Indianapolis, Ind.). Mice are placed in clear plastic cylinders (diameter 10 cm; height: 25 cm) filled to 6 cm with 22-25° C. water for six min. The duration of immobility is recorded during the last 4 min of a six-minute trial. Rats are treated similarly, albeit in clear plastic cylinders of larger dimensions (diameter: 18 cm; height: 40 cm) filled with water (22-25° C.) to a depth of 16 cm for 15 min. Additionally, mice receive a single forced swim exposure; rats receive two, 5-min sessions separated by 24 hours (data is recorded only on Day 2). The compound of Example 1 is tested in mice using intraperitoneal dosing (1, 3, or 10 mg/kg), 60 min prior to testing. […] Example 2 is administered 5 min following the first forced swim exposure and 120 min prior to the test session on Day 2. Imipramine is used as a positive control for these studies. Compounds are formulated in a water vehicle, with minimal NaOH being added to Example 1 and Example 2. Compounds are in a clear solution. The amount of time spent immobile (defined as movements only necessary to keep the subject's head above water) is the dependent measure and recorded by an observer blinded to the drug treatment of the subjects. Data are analyzed by post-hoc Dunnett's test with alpha level set at 0.05. The mouse version of the forced swim test is most commonly used. An ED60 value (60% of the amount of immobility relative to vehicle controls) is calculated to estimate potency of the test compounds.

Molecules are shown by their SMILES.

`C[C@H](N)C(=O)N[C@@]1(C(=O)O)C[C@@H](Sc2nnc[nH]2)[C@H]2[C@H](C(=O)O)[C@H]21.Cl` [Example 2, (1R,2S,4R,5R,6R)-2-[[(2S)-2-Aminopropanoyl]amino]-4-(1H-1,2,4-triazol-3-ylsulfanyl)bicyclo[3.1.0]hexane-2,6-dicarboxylic acid hydrochloride]: where the note is “oral dosing”, the “maximal effect, immobility as % of vehicle-treated rats” value is on record as 68%. Further, the immobility time result (oral, following dosing with 4.1 and 13.8 mg/kg, F(4,29)=14.72, p<0.0001) was “significantly decreased immobility time”.

The values are drawn from US8318184B2, “MGLU2 agonists” (Eli Lilly and Company, priority 2009, dated 2012).
